According to patent US20080286254A1, “Composition comprising licorice polyphenol” (Kaneka Corporation, priority 2007, published 2008):

System: 3T3-L1 cells
Experiment: Lipid decomposition (glycerol secretion) in in vitro obese model of differentiated 3T3-L1 adipocytes
Format: cell-based
Settings: 24 hr
Protocol: As adipocyte precursor cells, 3T3-L1 cells (Dainippon Sumitomo Pharmaceuticals Co., Ltd.) were used. The 3T3-L1 cells were cultured in passage medium A (10% bovine serum-added DMEM supplemented with penicillin[…]streptomycin) in a 75 cm^2 flask. The 3T3-L1 cells were plated in a 24 well plate at 20000 cells/well. The next day, the medium was changed to passage medium B (10% fetal calf serum-added high glucose DMEM supplemented with penicillin-streptomycin) and, 48 hr later, the medium was changed to differentiation induction medium. The differentiation induction medium contained passage medium B as a base medium, and dexamethasone, isobutylmethylxanthine, insulin and pioglitazone at a final concentration of 0.5 μM, 500 μM, 8 μg/ml and 2 μM, respectively. Further, 48 hr later, the medium was changed to a differentiation promoting medium. The differentiation promoting medium contained passage medium B as a base medium, and insulin and pioglitazone at a final concentration of 8 μg/ml and 2 μM, respectively. 48 hr later, the medium was changed to passage medium B. Thereafter, the medium was changed to passage medium B every other day. 7 to 10 days later, differentiation of 3T3-L1 cells into mature adipocyte cells were confirmed with a phase contrast microscope, and the cells were subjected to the following test.
After removing passage medium B by an aspirator, the cells were washed with KRB-HEPES (128 mM NaCl, 10 mM NaH2PO4, 4.7 mM KCl, 1.25 mM CaCl2, 1.25 mM MgCl2, 50 mM HEPES, pH 7.4). The licorice hydrophobic extract (50 mg/ml) of Example 1 and α-lipoic acid (100 mM) as an antioxidant ingredient were each dissolved in DMSO. […] The glycerol concentration was measured using Glycerol Reagent A manufactured by Zen-Bio, and the glycerol amount per protein concentration of the cell was calculated and compared. […]
After removing passage medium B, the cells were washed with KRB-HEPES. […] The glycerol concentration was measured using Glycerol Reagent A manufactured by Zen-Bio, and the glycerol amount per protein concentration of the cell was calculated and compared. […]

C[N+](C)(C)CC(O)CC(=O)[O-] (stereo not drawn) [carnitine] showed a glycerol secretion amount (Table 3 (Example 11), carnitine 80 μM) of 43.5 ± 1.9 μM/mg protein.
In the case of O=c1c(-c2ccc(O)cc2)coc2cc(O)cc(O)c12 [genistein], the glycerol secretion amount (Table 2 (Example 10), genistein 10 μM) is reported as 111.1 ± 6.3 μM/mg protein.
Compound O=C(O)CCCCC1CCSS1 (stereo not drawn) [α-lipoic acid] has a glycerol secretion amount (Table 1 (Example 9), α-lipoic acid 30 μM) of 89.6 ± 4.8 μM/mg protein.
